Test results as given in patent publication US20090162315A1 (priority 2004, published 2009).
Where “and” joins values, the source holds several entries; their conditions need not be identical. Equal entries are not always repeated.

Legend:
[1] = system: T84 human colon-carcinoma cells; format: cell-based
[2] = system: T84 human colon-carcinoma cells; format: cell-based; remark: listed apart in the source
[3] = system: T84 human colon-carcinoma cells; format: cell-based; remark: listed apart in the source
patients with MPE = conditions: in vivo; cited from earlier work

Compound | TER (Ω/cm^2) [1] | ^51Cr-EDTA flux (nml · h · cm^2) [2] [nml · h · cm^2] | Δ Isc to CCh (μA/cm2) [3] [μA/cm2] | Δ Isc to Fsk (% of control) [3] | Response rate in MPE (patients with MPE) [%]
N.N.[Cl][Pt][Cl] [Cisplatin, cis-diaminodichloroplatinum] | 800 Ω/cm^2 and 750 Ω/cm^2 | 2.8 | 20 | 90 % of control | –
Staphylococcal enterotoxin B [SEB] | – | – | 23 | 95 % of control | –
bleomycin | – | – | – | – | 50
